# Measured values as given in patent US9648880B2, “Antifungal agents and uses thereof” (University of Massachusetts, priority 2012, dated 2017).
# Legend:
# Cryptococcus gatti = assay: Cryptococcus proliferation; format: cell-based; details: 50 μM and 100 μM; 37° C., 18 hours
# Procedure: FIGS. 27A and 27B. Compound #4 inhibits proliferation of Cryptococcus gatti.
# Compound #4 was also tested for its inhibitory effect on the growth of Cryptococcus gatti. Cryptococcus cells were incubated at 37° C. in unsupplemented RPMI tissue culture media (+Glutamine−Phenol Red (Gibco #11835, Life Technologies, Grand Island, N.Y.; “RPMI”) or RPMI tissue culture media supplemented with 100 U/ml Penicillin/100 ug/ml Streptomycin (Gibco 100× Pen/Strep #151500-122), 1 mM NaPyruvate, and 10 mM HEPES pH 7.0 (“Af medium”) in the presence of 1% DMSO (control), 50 μM compound #4, or 100 μM compound #4, and cell numbers were counted after 18 hours. The assay was also performed with an untreated control.
# [1] = test system: C. albicans hyphae formation; assay: filamentation assay (hyphal morphogenesis); format: cell-based, Candida albicans; details: 50 μM overlay; 37° C., 2 days
# [2] = test system: C. albicans constitutively filamentous strains; assay: hyphal development induced by multiple signals (mutant strains, GlcNAc, hydroxyurea); format: cell-based, Candida albicans; parameters: genotoxic stress-induced filamentation: dose or concentration left out as unconfirmed
# Procedure: FIGS. 30A-30E. Compound #4 inhibits hyphal development induced by multiple signals. FIG. 30A is a schematic diagram of some of the signaling pathways that govern hyphal gene expression. For simplicity, only those genes investigated in this figure are shown. FIG. 30B is a series of photomicrographs showing the effects of compound #4 on constitutively filamentous mutant strains in the cAMP-PKA pathway. Wild-type SC5314, efg1-T206E, ras1-G13V, and ADH1pr-gpa2-Q355L cells were grown in the presence of 1% DMSO or 50 μM compound #4 in Spider medium at 37° C. for 4 hrs, stained with Calcofluor white and photographed using DIC or fluorescent microscopy (20× objective). FIG. 30C is a series of two photomicrographs showing that Compound #4 blocks filamentation induced by GlcNAc or constitutive overexpression of the GlcNac-activated transcription factor Cph1. Images obtained as in FIG. 30B. […] SC5314 cells grown in YPD at 30° C. in the presence of 50 mM hydroxyurea (HU) in combination with either 1% DMSO or […]. Images obtained as in FIG. 30B. FIG. 30E is a series of photomicrographs showing that Compound #4 inhibits the hyperfilamentous growth of a strain that constitutively overexpresses the Gpr1 protein. Colonies were grown on solid Spider media agar overlayed with either 1% DMSO or 50 μM #4 and incubated at 37° C. for 3 days. Colony edges were imaged with a 10× objective.
# To explore the mechanism of compound #4 action, we tested whether compound #4 would alter hyphal induction in mutants that hyperactivate the filamentation process. For example, hyphal induction by Spider media requires the cyclic AMP-protein kinase A (cAMP-PKA) pathway; FIG. 30A. Stimulation of this pathway drives PKA to phosphorylate transcription factor Efg1, activating Efg1 to increase expression of genes required for hyphal morphogenesis.
# For example, the modified sugar N-acetyl-glucosamine (GlcNac) also stimulates hyphal morphogenesis, but does so independently of the cAMP-PKA pathway, instead activating the transcription factor Cph1.
# In addition to nutrient-mediated signals, genotoxic stress promotes hyphal morphogenesis in C. albicans, and the DNA damage signaling kinase Rad53 is required for the hyphal transition.
# C. albicans SC5314-GFP = assay: GFP-based adhesion assay; format: cell-based; details: Candida albicans, SC5314, read-out: IC50 in the GFP-based adhesion assay
# Procedure: To do this, we measured adhesion of cells plated and washed as before, but here using a C. albicans strain encoding GFP. This allowed us to measure adhesion both in a fluorescence plate reader and by microscopy (FIGS. 1D and 1E). Indeed, these GFP-based assays confirmed that all the compounds effective at 25 μM in the alamarBlue-based assay impair C. albicans adhesion to polystyrene. We conclude that our chemical screen detected multiple compounds that block adhesion to polystyrene, and that these can be assayed via multiple detection methods.
# SC5314-GFP and edt1^−/−-GFP strains were pregrown overnight in SC+0.2% glucose media at 30° C., diluted into fresh SC+0.2% glucose media to a final concentration of 5×10^6 cells/ml (equivalent to 0.5 OD600/ml) and plated onto Immulon 2HB 96-well plates, with each well receiving 0.1 OD of cells. DMSO or compounds resuspended in DMSO were added to the desired final concentration (1% vol/vol of DMSO was maintained). Plates were then incubated for 4 hours at 37° C. […] Fluorescence was measured using a Synergy HT plate reader (BioTek) following addition of […] of PBS/well. For each experiment, untagged SC5314 was analyzed simultaneously to determine background fluorescence that was subtracted from the signal from each well.
smiles,measurement,setting,value
Cc1ccc(C(=O)N2CCN(c3ccc([N+](=O)[O-])cc3)CC2)cc1Cl [Compound 4],proliferation (cell numbers),Cryptococcus gatti,inhibited proliferation of Cryptococcus gatti at both concentrations tested
same,wrinkled colony morphology on solid Spider media,[1],abolished
same,hyphae driven by GlcNac-containing media or overexpression of Cph1,[2],also inhibits formation of hyphae in these cases
same,"morphology of hyperfilamentous cAMP-PKA pathway mutants (ras1-G13V, gpa2-Q355L, efg1-T206E)","[2]; 50 μM, Spider medium 37° C., 4 hrs","retained a planktonic, budded morphology"
same,hyphal morphogenesis of cells overexpressing Gpr1,"[2]; 50 μM, solid Spider media, 37° C., 3 days",blocked hyphal morphogenesis in these cells
same,genotoxic stress-induced filamentation,[2]; YPD 30° C.,form hyphae regardless of the presence of compound #4
same,IC50,C. albicans SC5314-GFP,~3 µM
